In brackets after ≈: the same amount, converted by molar mass.
What was measured:
CYP3A4 = CYP3A4 (Homo sapiens, UniProt P08684); test: Inhibition of CYP3A4 in human liver microsomes using midazolam as substrate at 10 uM in presence of NADPH generating system incubated for 10 mins; type: ADME; settings: probe midazolam
CYP2C9 = CYP2C9 (Homo sapiens, UniProt P11712); test: Inhibition of CYP2C9 in human liver microsomes using tolbutamide as substrate at 10 uM in presence of NADPH generating system incubated for 10 mins; type: ADME; settings: probe tolbutamide
Chain of CYP2C9 (P11712 whole entry): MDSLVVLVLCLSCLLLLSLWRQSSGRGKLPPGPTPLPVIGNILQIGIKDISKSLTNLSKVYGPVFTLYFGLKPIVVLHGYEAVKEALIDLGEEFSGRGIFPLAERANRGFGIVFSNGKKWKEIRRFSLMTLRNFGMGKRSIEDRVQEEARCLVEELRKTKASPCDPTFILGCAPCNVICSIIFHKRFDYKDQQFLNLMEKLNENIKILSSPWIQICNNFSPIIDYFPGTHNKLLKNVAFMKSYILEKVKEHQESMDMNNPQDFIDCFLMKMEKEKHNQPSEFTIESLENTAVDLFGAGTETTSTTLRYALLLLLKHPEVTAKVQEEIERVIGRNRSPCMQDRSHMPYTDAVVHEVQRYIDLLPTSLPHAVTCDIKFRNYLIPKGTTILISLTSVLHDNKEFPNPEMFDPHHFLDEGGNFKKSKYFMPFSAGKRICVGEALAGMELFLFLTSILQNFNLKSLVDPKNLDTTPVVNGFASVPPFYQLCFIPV

[1] = Cardiotoxicity in human iPSC-derived cardiomyocytes assessed as induction of proarrhythmic activity at 10 uM by Fluo-4 dye based fluorescence analysis; type: toxicity; settings: cardiac muscle cell
CYP2D6 = CYP2D6 (Homo sapiens, UniProt P10635); test: Inhibition of CYP2D6 in human liver microsomes using dextromethorphan as substrate at 10 uM in presence of NADPH generating system incubated for 10 mins; type: ADME; settings: probe dextromethorphan
Chain of CYP2D6 (P10635 whole entry): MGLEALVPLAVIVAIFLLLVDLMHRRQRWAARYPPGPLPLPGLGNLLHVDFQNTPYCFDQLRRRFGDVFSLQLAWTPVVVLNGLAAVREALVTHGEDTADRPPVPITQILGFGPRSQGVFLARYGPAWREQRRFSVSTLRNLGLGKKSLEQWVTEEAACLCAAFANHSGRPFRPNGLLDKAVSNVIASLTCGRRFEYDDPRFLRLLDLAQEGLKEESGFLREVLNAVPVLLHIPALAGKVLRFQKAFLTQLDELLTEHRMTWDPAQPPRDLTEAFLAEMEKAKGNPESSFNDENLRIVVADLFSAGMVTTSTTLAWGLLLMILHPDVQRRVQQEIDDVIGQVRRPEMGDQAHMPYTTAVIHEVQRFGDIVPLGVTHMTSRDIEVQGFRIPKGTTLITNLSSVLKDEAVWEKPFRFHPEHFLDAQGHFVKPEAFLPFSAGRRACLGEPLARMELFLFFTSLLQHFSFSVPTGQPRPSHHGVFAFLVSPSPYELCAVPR

[2] = Oral bioavailability in non-fasted ICR mouse at 5 mg/kg by LC-MS/MS analysis; type: ADME, organism-based; settings: in vivo
[3] = target: Ceramide glucosyltransferase (Homo sapiens, UniProt Q16739); test: Inhibition of GCS in GBA mutant human fibroblasts assessed as reduction in glucosylceramide level incubated for 4 days by RapdiFire-MS/MS analysis; type: cell-based; settings: fibroblast
[4] = Volume of distribution at steady state in non-fasted ICR mouse at 0.5 mg/kg, iv by LC-MS/MS analysis; type: ADME, organism-based; settings: in vivo, read-out: Vdss
[5] = MRT in non-fasted ICR mouse at 0.5 mg/kg, iv by LC-MS/MS analysis; type: ADME, organism-based; settings: in vivo
[6] = Ratio of unbound drug concentration in brain to plasma of non-fasted ICR mouse at 30 mg/kg, po measured after 1 hr by LC-MS/MS analysis; type: ADME, organism-based; settings: read-out: K(p,uu,brain)
[7] = Kinetic solubility of the compound in JP2 fluid at pH 6.8 by precipitation method; type: physicochemical; settings: read-out: Kinetic_solubility
[8] = 1-Octanol/aqueous buffer partition coefficient, logD of the compound at pH 7.4 by chromatographic method; type: physicochemical
[9] = target: T1, Lysosomal acid glucosylceramidase (Homo sapiens, UniProt P04062); test: Inhibition of human recombinant GCase using 4-methylumbelliferyl beta-D-glucopyranoside as substrate incubated for 20 mins by fluorescence-based analysis
T1 sequence (P04062 whole entry): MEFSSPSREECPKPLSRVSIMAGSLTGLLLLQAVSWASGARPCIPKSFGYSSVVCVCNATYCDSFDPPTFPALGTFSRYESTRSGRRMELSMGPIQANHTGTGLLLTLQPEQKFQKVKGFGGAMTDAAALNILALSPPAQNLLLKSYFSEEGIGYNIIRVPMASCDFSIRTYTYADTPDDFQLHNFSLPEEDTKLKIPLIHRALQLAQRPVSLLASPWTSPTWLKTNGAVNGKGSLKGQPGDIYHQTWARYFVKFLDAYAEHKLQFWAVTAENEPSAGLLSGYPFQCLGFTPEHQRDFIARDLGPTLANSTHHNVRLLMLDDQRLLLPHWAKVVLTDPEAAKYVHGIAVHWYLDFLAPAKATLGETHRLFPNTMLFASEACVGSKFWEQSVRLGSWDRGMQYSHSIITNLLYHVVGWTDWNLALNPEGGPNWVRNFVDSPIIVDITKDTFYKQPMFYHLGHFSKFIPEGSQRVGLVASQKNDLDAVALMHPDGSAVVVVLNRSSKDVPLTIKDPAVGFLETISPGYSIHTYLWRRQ

[10] = Plasma clearance in non-fasted ICR mouse at 0.5 mg/kg, iv by LC-MS/MS analysis; type: ADME, organism-based
Cav1.2 = Cav1.2 (Homo sapiens, UniProt Q13936); test: Inhibition of human Cav1.2 expressed in HEK293 cells at 30 uM by automated electrophysiology QPatch HT assay; type: toxicity, cell-based; settings: HEK293 cells expressing Cav1.2
Chain of Cav1.2 (Q13936 whole entry): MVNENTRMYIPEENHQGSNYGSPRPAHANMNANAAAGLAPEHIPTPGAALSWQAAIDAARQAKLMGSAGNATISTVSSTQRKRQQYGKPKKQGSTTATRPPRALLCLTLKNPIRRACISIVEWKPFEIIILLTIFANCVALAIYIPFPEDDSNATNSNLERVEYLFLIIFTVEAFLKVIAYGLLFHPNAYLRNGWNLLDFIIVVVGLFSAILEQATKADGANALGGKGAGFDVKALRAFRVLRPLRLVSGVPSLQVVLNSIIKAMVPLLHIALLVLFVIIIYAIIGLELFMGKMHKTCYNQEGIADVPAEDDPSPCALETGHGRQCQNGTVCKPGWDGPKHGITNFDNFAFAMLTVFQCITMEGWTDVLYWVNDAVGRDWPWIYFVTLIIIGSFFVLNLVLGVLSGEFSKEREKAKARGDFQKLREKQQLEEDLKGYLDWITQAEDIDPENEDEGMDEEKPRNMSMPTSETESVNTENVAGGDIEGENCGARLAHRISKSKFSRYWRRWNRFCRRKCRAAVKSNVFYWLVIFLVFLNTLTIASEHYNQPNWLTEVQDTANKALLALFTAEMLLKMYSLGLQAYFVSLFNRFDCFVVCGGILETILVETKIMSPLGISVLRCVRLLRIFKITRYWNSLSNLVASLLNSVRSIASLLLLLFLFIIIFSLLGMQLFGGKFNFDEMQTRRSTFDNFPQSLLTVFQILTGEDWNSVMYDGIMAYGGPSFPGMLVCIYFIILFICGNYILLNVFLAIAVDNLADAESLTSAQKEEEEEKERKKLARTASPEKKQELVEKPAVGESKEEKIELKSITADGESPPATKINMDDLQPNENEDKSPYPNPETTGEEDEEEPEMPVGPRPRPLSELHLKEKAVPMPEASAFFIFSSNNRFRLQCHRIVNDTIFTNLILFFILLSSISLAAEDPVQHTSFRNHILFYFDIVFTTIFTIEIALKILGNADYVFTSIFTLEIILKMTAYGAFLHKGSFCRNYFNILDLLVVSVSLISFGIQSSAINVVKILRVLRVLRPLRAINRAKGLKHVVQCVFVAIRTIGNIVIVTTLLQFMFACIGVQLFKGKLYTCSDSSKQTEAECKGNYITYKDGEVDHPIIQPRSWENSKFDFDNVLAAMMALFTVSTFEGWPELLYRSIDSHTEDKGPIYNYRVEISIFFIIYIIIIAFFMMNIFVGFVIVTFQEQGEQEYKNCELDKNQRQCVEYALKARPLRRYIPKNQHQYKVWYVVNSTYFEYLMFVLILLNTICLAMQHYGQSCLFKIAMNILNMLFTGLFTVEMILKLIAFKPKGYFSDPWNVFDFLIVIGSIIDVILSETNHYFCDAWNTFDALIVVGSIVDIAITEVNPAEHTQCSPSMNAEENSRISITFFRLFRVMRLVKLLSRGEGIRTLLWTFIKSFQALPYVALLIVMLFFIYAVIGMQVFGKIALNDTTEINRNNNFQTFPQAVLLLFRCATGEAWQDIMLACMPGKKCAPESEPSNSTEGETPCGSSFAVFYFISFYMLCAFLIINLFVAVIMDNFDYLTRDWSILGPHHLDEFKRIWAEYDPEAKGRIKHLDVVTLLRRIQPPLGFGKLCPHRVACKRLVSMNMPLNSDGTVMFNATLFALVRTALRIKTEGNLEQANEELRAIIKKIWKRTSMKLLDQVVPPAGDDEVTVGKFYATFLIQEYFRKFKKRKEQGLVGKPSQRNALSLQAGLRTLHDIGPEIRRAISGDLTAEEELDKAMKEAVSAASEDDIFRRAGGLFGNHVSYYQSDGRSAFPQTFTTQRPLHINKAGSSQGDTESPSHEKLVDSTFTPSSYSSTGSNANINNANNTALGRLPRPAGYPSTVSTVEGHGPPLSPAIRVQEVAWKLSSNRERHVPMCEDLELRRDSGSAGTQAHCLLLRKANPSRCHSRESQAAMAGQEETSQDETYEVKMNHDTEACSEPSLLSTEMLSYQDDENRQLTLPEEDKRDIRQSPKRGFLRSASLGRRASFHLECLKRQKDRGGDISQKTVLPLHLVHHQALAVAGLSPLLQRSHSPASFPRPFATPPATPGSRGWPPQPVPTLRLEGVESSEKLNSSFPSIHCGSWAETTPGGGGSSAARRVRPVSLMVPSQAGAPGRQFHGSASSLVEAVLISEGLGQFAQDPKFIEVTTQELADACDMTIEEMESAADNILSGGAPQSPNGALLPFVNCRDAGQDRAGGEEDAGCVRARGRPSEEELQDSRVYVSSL

[11] = Efflux ratio of apparent permeability from basolateral to apical side over apical to basolateral side in dog MDCK-MDR1 cells at 1 uM measured after 1 hr by LC-MS/MS analysis; type: ADME, cell-based, Canis lupus familiaris
[12] = Intrinsic clearance in human liver microsomes at 1 uM in presence of NADPH generating system assessed per mg protein by LC-MS/MS analysis; type: ADME, Microsome; settings: read-out: CLH
hERG = hERG (Homo sapiens, UniProt Q12809); test: Inhibition of hERG expressed in CHO-K1 cells at 30 uM by automated whole cell patch clamp assay; type: toxicity, cell-based; settings: CHO-K1 cells expressing hERG
Chain of hERG (Q12809 whole entry): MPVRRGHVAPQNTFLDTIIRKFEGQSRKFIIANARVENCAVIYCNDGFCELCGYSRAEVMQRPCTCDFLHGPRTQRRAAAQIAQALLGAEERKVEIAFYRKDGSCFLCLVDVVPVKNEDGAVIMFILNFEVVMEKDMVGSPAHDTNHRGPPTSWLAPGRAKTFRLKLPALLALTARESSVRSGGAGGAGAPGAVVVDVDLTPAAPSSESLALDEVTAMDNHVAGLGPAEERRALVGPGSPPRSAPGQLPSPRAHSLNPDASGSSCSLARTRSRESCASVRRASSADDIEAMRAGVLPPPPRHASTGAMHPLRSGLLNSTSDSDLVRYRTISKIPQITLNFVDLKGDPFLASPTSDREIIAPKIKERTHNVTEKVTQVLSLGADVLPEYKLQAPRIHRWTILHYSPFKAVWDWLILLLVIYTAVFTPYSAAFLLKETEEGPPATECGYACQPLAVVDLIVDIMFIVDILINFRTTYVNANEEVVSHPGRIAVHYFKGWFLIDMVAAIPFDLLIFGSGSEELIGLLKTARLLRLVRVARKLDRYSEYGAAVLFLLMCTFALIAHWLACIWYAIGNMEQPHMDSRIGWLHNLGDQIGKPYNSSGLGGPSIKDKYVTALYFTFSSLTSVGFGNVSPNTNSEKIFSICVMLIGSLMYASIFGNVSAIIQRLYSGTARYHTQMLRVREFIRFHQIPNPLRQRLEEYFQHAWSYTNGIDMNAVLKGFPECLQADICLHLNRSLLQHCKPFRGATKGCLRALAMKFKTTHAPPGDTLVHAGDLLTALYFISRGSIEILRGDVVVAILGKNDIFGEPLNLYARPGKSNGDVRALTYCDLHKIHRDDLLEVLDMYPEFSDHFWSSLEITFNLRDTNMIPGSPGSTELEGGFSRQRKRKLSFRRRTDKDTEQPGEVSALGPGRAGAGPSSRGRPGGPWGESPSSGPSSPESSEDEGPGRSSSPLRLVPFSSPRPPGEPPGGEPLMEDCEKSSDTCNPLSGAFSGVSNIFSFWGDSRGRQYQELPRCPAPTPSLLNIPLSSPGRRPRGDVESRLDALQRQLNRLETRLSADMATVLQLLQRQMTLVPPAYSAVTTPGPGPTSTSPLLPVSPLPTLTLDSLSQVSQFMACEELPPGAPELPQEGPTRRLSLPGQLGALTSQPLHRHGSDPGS

[13] = Intrinsic clearance in mouse liver microsomes at 1 uM in presence of NADPH generating system assessed per mg protein by LC-MS/MS analysis; type: ADME, Microsome; settings: read-out: CLH

Chain of CYP3A4 (P08684 whole entry): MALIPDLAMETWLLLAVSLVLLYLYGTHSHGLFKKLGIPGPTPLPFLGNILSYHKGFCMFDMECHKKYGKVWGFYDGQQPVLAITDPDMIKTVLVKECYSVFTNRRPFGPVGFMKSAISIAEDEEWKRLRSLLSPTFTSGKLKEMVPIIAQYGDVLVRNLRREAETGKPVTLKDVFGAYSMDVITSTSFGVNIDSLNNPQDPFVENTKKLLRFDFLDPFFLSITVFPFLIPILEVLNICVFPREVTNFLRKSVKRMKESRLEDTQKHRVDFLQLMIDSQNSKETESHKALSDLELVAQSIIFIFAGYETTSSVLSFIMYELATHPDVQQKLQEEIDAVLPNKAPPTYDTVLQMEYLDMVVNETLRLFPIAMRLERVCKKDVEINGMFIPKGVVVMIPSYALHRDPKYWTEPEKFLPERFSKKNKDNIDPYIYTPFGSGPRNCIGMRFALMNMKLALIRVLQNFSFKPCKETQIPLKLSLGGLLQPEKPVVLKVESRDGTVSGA

Compound: CC(C)(O)c1ccc(NC(=O)c2ccnn(-c3ccccc3OCC(F)(F)F)c2=O)cc1
- inhibition at 10 min, 10 µM (CYP3A4): -4.8%
- inhibition at 10 min, 10 µM (CYP2C9): 24.9%
- Activity [1]: Non-Toxic
- inhibition at 10 min, 10 µM (CYP2D6): 15.6%
- bioavailability [2]: 31%
- EC50 [3]: 4.4 nM
- Vd [4]: 1.97 L/kg
- MRT [5]: 1.03 h
- Kp uu at 1 h [6]: 0.26
- solubility kinetic [7]: 45 µg/mL (≈ 101 µM)
- chromatographic logD [8]: 2.42
- EC50 [9]: > 300000 nM
- clearance [10]: 33.7 mL/min/kg
- inhibition at 30 µM (Cav1.2): 7.3%
- efflux ratio at 1 h, 1 µM [11]: 8.8
- microsomal CLint at 1 µM [12]: 32 µL/min/mg
- inhibition at 30 µM (hERG): 8%
- microsomal CLint at 1 µM [13]: 1 µL/min/mg

From ChEMBL document CHEMBL5046282, “Discovery of Brain-Penetrant Glucosylceramide Synthase Inhibitors with a Novel Pharmacophore” (J Med Chem, 2022)
